In turn, `CC(C)N1C(=O)CC(C(=O)O)C1c1ccc(Cl)c(F)c1` (stereo not drawn) yielded a melting point of 163 to 165 °C.
`Nc1nc(-c2cccs2)cs1` returned a melting point of 136 to 138 °C.
In the case of `OC[C@@H](O)CNCCC(F)(F)F` it was 34 to 36 °C; in that of `O=C(CO)c1ccc(Cl)cc1`, 124 to 126 °C; in that of `O=c1[nH]cc(S(=O)(=O)Cl)c(=O)[nH]1`, 155 to 157 °C.
Compound `N#Cc1ccccc1Sc1ccc(C(=O)O)cc1` returned a melting point of 182 to 184 °C.
`O=C(O)c1cn(-c2ccc(F)cc2)nn1` came in with a melting point of 159 to 161 °C.
In the case of `N#CCc1c[nH]c2cc(Br)ccc12` it was 112 to 114 °C; in that of `Nc1ncc(Cc2ccc(Cl)cc2Cl)s1`, 109 to 111 °C.
In the case of `O=C(O)c1nccnc1C(=O)NCc1ccc(F)cc1`, the melting point fell in the range of 170 to 172 °C.
Consider `CCOC(=O)c1ccc2c(c1)nc(S)n2CC`, for which the melting point is 152 to 154 °C.
The figure for `O=Cc1ccc(OCc2cccnc2)cc1` is 75 to 77 °C.
In the case of `Nc1ccnn1CCc1ccccc1` it was 67 to 69 °C; in that of `Cc1oc(-c2ccccc2F)nc1C(=O)O`, 174 to 176 °C.
The figure for `COCCN1C(=O)CC(=O)NC1=S` is 148 to 150 °C; for `NC(=O)c1cccc(Cl)n1` it is 124 to 126 °C.
In the case of `N#CCc1ccc(C(N)=O)cc1`, the melting point fell in the range of 186 to 188 °C.
The figure for `OC1CCCCc2ccccc21` (stereo not drawn) is 101 to 103 °C; for `Cc1nccn1-c1ccc(N)cn1` it is 160 to 162 °C.
In turn, `Cn1cc(Br)nn1` had a melting point of 99 to 101 °C.
`Nc1nnc(C(F)F)s1` displayed a melting point of 174 to 176 °C.
In the case of `CC1(O)CN(C(=O)OC(C)(C)C)C1` it was 89 to 91 °C.
In the case of `O=C(O)c1n[nH]c2ccccc2c1=O` it was 259 to 261 °C.
As for `O=C(OCc1ccc(Br)cc1)c1ccccc1O`, the melting point was 69 to 71 °C.
`CCc1[nH]ncc1C(=O)O` registered a melting point of 229 to 231 °C.
The figure for `CC1(O)CCNC1` (stereo not drawn) is 37 to 39 °C; for `c1ccc2[nH]c(C3CCNCC3)nc2c1` it is 253 to 255 °C; for `CC(C)(C)OC(=O)NC12CCC(C(=O)O)(C1)C2` it is 169 to 171 °C.
`O=C(O)Cc1csc(-c2ccc(F)cc2)n1` displayed a melting point of 129 to 131 °C.
The figure for `OC(c1ccccc1)C1CCNCC1` (stereo not drawn) is 171 to 173 °C; for `O=C(O)CSc1nc(-c2ccccc2)no1` it is 115 to 117 °C; for `COC(=O)c1n[nH]c2ccc(N)cc12` it is 181 to 183 °C.
The figure for `Nc1cccc(Cl)c1N1CCOCC1` is 154 to 156 °C; for `CCOc1cc(C=O)cc(Cl)c1OC` it is 55 to 57 °C.
The figure for `O=C1CC(=O)Nc2cc(S(=O)(=O)Cl)ccc2N1` is 253 to 255 °C; for `NC(=O)CCC1CCNCC1` it is 64 to 66 °C; for `CCc1ccc2nc(N)sc2c1` it is 105 to 107 °C.
Turning to `Cc1nn(-c2ccc(Cl)c(Cl)c2)c(C)c1CC(=O)O`, the melting point lay in the range of 140 to 142 °C.
The figure for `CS(=O)(=O)c1ccc(F)c(NC(=O)CCl)c1` is 126 to 128 °C; for `Cc1cc(C(=O)CCl)c(C)n1-c1c(C)n(C)n(-c2ccccc2)c1=O` it is 160 to 162 °C; for `O=c1c2ccccc2nc2n1CCO2` it is 160 to 163 °C.
For the compound `CCOC(=O)c1sc(N)c(C#N)c1C`, the melting point was in the range of 212 to 214 °C.
As to `CCOc1ccc(S(N)(=O)=O)cc1`, the melting point was in the range of 152 to 154 °C.
The figure for `O=S(=O)(c1ccc2c(c1)CCN2)N1CCOCC1` is 173 to 177 °C.
The figure for `Cn1ccnc1C(N)c1ccccc1F` (stereo not drawn) is 58 to 60 °C; for `CC(C)(C)Cc1cc(N)n[nH]1` it is 106 to 108 °C.
Consider `O=c1[nH]c2ccccc2c(=O)n1CCCO`, for which the melting point was 174 to 176 °C.
`COc1ccc(Cl)cc1-c1nnc(N)o1` came in with a melting point of 201 to 203 °C.
The figure for `Nc1cc(Br)ccc1N1CCOCC1` is 153 to 155 °C.
In the case of `Cc1ccc(F)c(-n2cc(O)c(C(=O)O)n2)c1` it was 201 to 203 °C.
The figure for `O=C(O)c1noc(-c2ccccc2Cl)n1` is 119 to 121 °C; for `COc1ccc(C2(C(=O)O)CCCCC2)cc1OC` it is 124 to 126 °C; for `Cc1ccc(-n2c(C)c(C)c3c(N)ncnc32)cc1` it is 202 to 206 °C.
In turn, `CS(=O)(=O)NCC#N` showed a melting point of 69 to 71 °C.
`O=C1CCCN1c1cccc(Br)c1` had a melting point of 69 to 71 °C.
Compound `O=S(=O)(NC1CC1)C1CCN(Cc2ccccc2)C1` (stereo not drawn) yielded a melting point of 94 to 96 °C.
As to `CCCOc1ccc(C(=O)NN)cc1OC`, the melting point was 146 to 148 °C.
In the case of `NC(=O)Nc1ccccc1Oc1ccccc1` it was 182 to 184 °C.
The figure for `Cc1sc(=O)n(CC(=O)O)c1C` is 186 to 188 °C.
`O=C(O)c1csc(Nc2ccccn2)n1` displayed a melting point of 298 to 300 °C.
In the case of `O=C(O)c1cnn(-c2cccc(Cl)c2)c1` it was 204 to 206 °C; in that of `C=CC(=O)Nc1cc(OC)c(Cl)cc1OC`, 124 to 126 °C; in that of `CCCc1ccc(-c2csc(N)n2)cc1`, 115 to 117 °C.
In the case of `CC(=O)c1nc(-c2ccccc2)cs1` it was 77 to 79 °C; in that of `Cc1ccc(-c2nnc(N)[nH]2)c(C)c1`, 211 to 213 °C.
The figure for `OCCNc1ccc(-c2ccccc2)nn1` is 162 to 164 °C; for `NC(=O)c1cn(CC(=O)O)c2ccccc12` it is 239 to 241 °C; for `Cc1ccn2ncc(C(=O)O)c2n1` it is 256 to 258 °C.
For the compound `Cc1nc(C)c(CC(=O)O)c(=O)[nH]1`, the melting point fell in the range of 229 to 231 °C.
For `O=C(Nc1cc(Cl)ccc1Cl)OCC(F)(F)F`, the melting point was 110 to 112 °C.
The compound `NC(=O)c1ccc(N)cc1F` registered a melting point of 148 to 150 °C.
`O=C(c1ccc(F)cc1F)N1CCCNCC1` gave a melting point of 93 to 95 °C.
`CC(C)(C)c1ccc(C(=O)N2CSCC2C(=O)O)cc1` (stereo not drawn) registered a melting point of 180 to 182 °C.
In the case of `CC(C)(C)c1nc(=N)s[nH]1` it was 160 to 162 °C; in that of `Cc1ccnn1-c1ccc(C(=O)O)cc1`, 243 to 245 °C.
The figure for `CCCCn1c(N)cc(=O)n(C)c1=O` is 92 to 94 °C; for `CN(C)CCCNS(=O)(=O)c1cccc(C#N)c1` it is 101 to 103 °C.
With `CC(C)CNCC(O)c1ccccc1` (stereo not drawn), the melting point was 61 to 63 °C.
As to `Cc1nn(C(C)C)c(C)c1NC(=O)OCC(F)(F)F`, the melting point fell in the range of 185 to 187 °C.
The figure for `O=c1[nH]c(CO)nc2scc(-c3ccccc3)c12` is 259 to 261 °C; for `CC1CC(=O)N(Cc2ccccc2)c2ccccc2N1` (stereo not drawn) it is 110 to 112 °C; for `N#Cc1nnc[nH]1` it is 188 to 190 °C.
The figure for `Cc1ccc(N(C(=O)CCl)C2C=CS(=O)(=O)C2)cc1` (stereo not drawn) is 118 to 120 °C.
Turning to `Cc1ccc(-n2c(S)nnc2-c2ccc(Cl)cc2)cc1`, the melting point fell in the range of 141 to 143 °C.
Take `NC(=NO)c1ccc(Br)o1`: the melting point lay in the range of 129 to 131 °C.
In turn, `Cc1cc(C(=O)CCl)c(C)n1CCc1ccccc1` returned a melting point of 80 to 82 °C.
`COc1cc(OC)c(S(=O)(=O)Cl)cc1Br` showed a melting point of 193 to 195 °C.
The figure for `Cc1csc(Sc2c(N)cccc2Cl)n1` is 132 to 134 °C; for `CC(C)C(=O)CNC(=O)c1ccc([N+](=O)[O-])cc1` it is 106 to 108 °C.
As to `Cn1c(CCC(=O)O)nc(=O)c2ccccc21`, the melting point lay within 200 to 202 °C.
In the case of `COc1cccc(C=C(CC(=O)O)c2nc3ccccc3s2)c1` it was 153 to 155 °C; in that of `C=C(CC(=O)OC)C(=O)O`, 67 to 69 °C; in that of `Cc1cccc2c(CCN)c[nH]c12`, 125 to 127 °C.
On to `CC(CN)N1CCN(c2ccccc2)CC1` (stereo not drawn), for which the melting point was 91 to 93 °C.
In the case of `CS(=O)(=O)OCC1CCOCC1` it was 61 to 63 °C.
The compound `Nn1cn[nH]c1=O` registered a melting point of 169 to 171 °C.
Turning to `CC(=O)Nc1cc(F)c(S(=O)(=O)Cl)c(F)c1`, the melting point was 133 to 135 °C.
The figure for `CC(C(=O)Nc1cccc(N)c1)n1cccn1` (stereo not drawn) is 135 to 137 °C.
Compound `CCOc1ccc(NC(N)=S)cc1` registered a melting point of 164 to 166 °C.
Compound `CC(=O)c1[nH]c2c(c1C)C(=O)NC(=O)C2` gave a melting point of 354 to 356 °C.
In the case of `N#CCn1cc(C(=O)O)c2ccccc21` it was 199 to 201 °C; in that of `NS(=O)(=O)c1ccc(CC(=O)O)cc1`, 169 to 171 °C.
The figure for `OCCCOc1cccc2ccccc12` is 65 to 67 °C; for `Cc1nn(-c2ccccc2)c(N)c1-c1ccccc1` it is 82 to 84 °C.
In the case of `NC(=S)Cc1cccc(F)c1` it was 69 to 71 °C; in that of `CC(=O)Nc1ccc(C(N)=S)cc1`, 239 to 241 °C; in that of `Nc1ccc(Oc2ccncc2)cc1`, 160 to 162 °C.
With `Nc1ccc(-n2cncn2)c(Cl)c1`, the melting point lay within 131 to 133 °C.
The figure for `CCNc1c(N)n(CC)c(=O)[nH]c1=O` is 210 to 212 °C; for `CCc1cccc2c(CC#N)c[nH]c12` it is 115 to 117 °C.
Consider `O=C(O)CCNC(=O)c1ccc(Cl)cc1`, for which the melting point lay in the range of 167 to 169 °C.
On to `Nc1ccc(C(=O)N2CC(=O)Nc3ccccc32)cc1`, for which the melting point fell in the range of 286 to 288 °C.
With `O=C(Cc1ccccc1)NC1CCNCC1`, the melting point was in the range of 139 to 141 °C.
In the case of `COc1ccc(-c2cc(C(=O)O)nn2-c2ccccc2)cc1` it was 198 to 200 °C; in that of `COc1ccc(C)cc1-c1csc(N)n1`, 205 to 207 °C; in that of `Cc1c(N)cccc1N1C(=O)CCC1=O`, 182 to 184 °C.
Turning to `Cc1cc(F)c(C(=O)O)cc1F`, the melting point fell in the range of 167 to 169 °C.
The figure for `O=C(O)C1(O)CCC1` is 39 to 41 °C; for `Nc1nc(Cl)c(C=O)c(N2CCCC2)n1` it is 176 to 178 °C.
`COc1cccc(C(=O)O)c1OC(F)F` registered a melting point of 152 to 154 °C.
In the case of `O=C(O)c1c2c(nc3ccc(Br)cc13)CCCC2` it was 291 to 293 °C; in that of `CCS(=O)(=O)NCCS(=O)(=O)Cl`, 68 to 70 °C; in that of `CC(=O)c1cc(Cl)cc(CN2CCN(C(C)=O)CC2)c1O`, 136 to 138 °C.

The melting point is the temperature, or range, at which the solid turns liquid.

Source of the values: a melting point compilation (Tetko et al.).
